Laboratory results taken from US9107876B2, “Surface anesthetic agent” (YAMAGUCHI UNIVERSITY, priority 2009, dated 2015).

Tested on: buccal mucosal membrane
Experiment: Needle stab after applying the surface anesthetic agent to the buccal mucosal membrane: time for the painless effect to be exerted
Assay type: in vivo
Settings: 200 mg applied with a cotton swab to the buccal mucosal membrane, then a needle stabbed
Description: Various surface anesthetic agents mentioned above were applied to the buccal mucosal membrane, and then a needle was stabbed, and the time for the painless effect to be exerted and the time for the pain to start again were measured.
(1) As a sample of tetracaine alone, 200 mg (12 mg tetracaine) COPALON was attached to a cotton swab, and applied to the buccal mucosal membrane.
(2) As a sample of lidocaine alone, 200 mg Xylocaine jelly (4 mg lidocaine) was attached to a cotton swab, and applied to the buccal mucosal membrane.
(3) As a sample of a combination use of tetracaine and lidocaine, various mixtures of tetracaine and lidocaine in 92:8, 82:18, 67:33 and 43:57 mass ratios were prepared by varying the blending ratio of COPALON and Xylocaine jelly to 80:20, 60:40, 40:60 and 20:80. 200 mg of each of the prepared mixtures was attached to a cotton swab, and applied to the buccal mucosal membrane. […]
Various surface anesthetic agents containing tetracaine and/or lidocaine mentioned above were applied to the buccal mucosal membrane, and then a needle was stabbed, and the time for the painless effect to be exerted and the time for the pain to start again were measured.

CCN(CC)CC(=O)Nc1c(C)cccc1C [Comparative Example 1-2, 2-(diethylamino)-N-(2,6-dimethylphenyl) acetamide]
time for the painless effect to be exerted after the application: 5 min
